Measured values as given in patent US20080146811A1, “Compounds and Methods For Treatment of Thrombosis” (priority 2004, published 2008).

Tests used:
Type in all cases: biochemical
[1] = biological target: thrombin (Homo sapiens, UniProt P00734); assay: In vitro inhibition of thrombin
[2] = biological target: factor Xa (Homo sapiens, UniProt P00742); assay: In vitro inhibition of factor Xa
[3] = biological target: factor XIa (Homo sapiens, UniProt P03951); assay: In vitro inhibition of factor XIa
Sequence of factor XIa (P03951 388-625 limits assumed): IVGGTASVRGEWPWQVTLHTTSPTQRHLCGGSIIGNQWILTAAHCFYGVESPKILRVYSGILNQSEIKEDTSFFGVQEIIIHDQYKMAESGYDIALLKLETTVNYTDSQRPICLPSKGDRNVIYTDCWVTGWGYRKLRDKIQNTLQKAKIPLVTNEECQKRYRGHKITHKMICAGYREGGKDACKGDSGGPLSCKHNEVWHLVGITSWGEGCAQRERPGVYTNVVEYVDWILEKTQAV

Sequence of factor Xa (P00742 235-488 limits assumed): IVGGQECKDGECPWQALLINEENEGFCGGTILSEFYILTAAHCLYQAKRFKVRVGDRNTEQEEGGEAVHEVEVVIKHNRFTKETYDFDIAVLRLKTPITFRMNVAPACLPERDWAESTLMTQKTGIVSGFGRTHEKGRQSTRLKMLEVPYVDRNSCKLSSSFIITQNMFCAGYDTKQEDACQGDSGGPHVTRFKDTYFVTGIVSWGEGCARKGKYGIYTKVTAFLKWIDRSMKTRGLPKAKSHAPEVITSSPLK
Sequence of factor Xa (P00742 41-179 partner limits assumed): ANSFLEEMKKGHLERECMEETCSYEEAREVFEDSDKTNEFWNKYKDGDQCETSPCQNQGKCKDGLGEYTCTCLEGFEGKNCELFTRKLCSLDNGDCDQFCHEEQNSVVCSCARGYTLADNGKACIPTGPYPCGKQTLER

Compound	IC50 [1] [µM]	IC50 [2] [µM]	IC50 [3] [µM]
COC(=O)[C@H](CC(C)C)NC(=O)c1cccc2c(C(=N)N)cn(CC(=O)Nc3cccnc3)c12 [Compound 98]	3.78	–	0.1
N=C(N)c1cn(CC(=O)Nc2cccnc2)c2c(C(N)=O)cccc12 [Compound 84]	–	–	1.47
N=C(N)c1cn(C(=CC(=O)N2CCCC(C(=O)O)C2)c2ccccc2)c2ccccc12 (stereo not shown) [Compound 111]	–	–	13.7
Cc1c(O)cccc1NC(=O)Cn1cc(C(=N)N)c2ccccc21 [Compound 1]	> 200	167	47.9
N=C(N)c1cn(CC(=O)Nc2ccc(C(=O)O)cc2)c2c(/C=C/C(=O)N[C@H](C(=O)O)c3ccccc3)cccc12 [Compound 77]	> 200	67.8	0.093
N=C(N)c1cn(-c2cc(Br)ccc2C(=O)NCc2ccccc2)c2ccccc12 [Compound 150]	–	–	280
N=C(N)c1cn(CC(=O)Nc2cccnc2)c2c(-c3cccc(O)c3)cccc12 [Compound 46]	–	–	8.09
N=C(N)c1cn(-c2cc(Cl)ccc2[N+](=O)[O-])c2c(C(=O)Nc3cccnc3)cccc12 [Compound 158]	> 200	80.8	1.24
COC(=O)c1ccc(-c2cccc(O)c2)cc1-n1cc(C(=N)N)c2ccccc21 [Compound 135]	43.7	15.2	1.62
C[C@@H](CNC(=O)Cn1cc(C(=N)N)c2ccccc21)c1ccccc1 [Compound 5]	> 200	283	37.1
N=C(N)c1cn(CC(=O)Nc2cccnc2)c2c(/C=C/C(=O)Nc3cccnc3)cccc12 [Compound 54]	–	–	1.99
N=C(N)c1cn(C(=CC(=O)N2CCNCC2)c2ccccc2)c2ccccc12 [Compound 101]	–	–	6.27
COC(=O)c1ccc(-c2cccnc2)cc1-n1cc(C(=N)N)c2ccccc21 [Compound 139]	73.1	9.65	3.8
N=C(N)c1cn(CC(=O)Nc2ccc(C(=O)O)cc2)c2c(C=CC(=O)NC(Cc3ccc(O)cc3)C(=O)O)cccc12 (stereo not shown) [Compound 70]	> 200	> 2	0.042
N=C(N)c1cn(-c2ccccc2[N+](=O)[O-])c2ccccc12 [Compound 151]	224	145	4.15
COC(=O)c1ccc(NC(=O)Cn2cc(C(=N)N)c3cccc(/C=C/C(=O)N4CCc5cc(O)c(O)cc5C4)c32)cc1 [Compound 64]	–	–	1.96
COC(=O)c1ccc(NC(=O)Cn2cc(C(=N)N)c3cccc(C(=O)NCc4ccc(O)c(O)c4)c32)cc1 [Compound 95]	4.2	82	0.87
COC(=O)c1ccc(NC(=O)c2cccnc2)cc1-n1cc(C(=N)N)c2ccccc21 [Compound 142]	–	–	11.3
COC(=O)c1cccc(Oc2ccc([N+](=O)[O-])c(-n3cc(C(=N)N)c4ccccc43)c2)c1 [Compound 154]	20.2	54.7	3

Next, values leading:

IC50 [1] [µM]	IC50 [2] [µM]	IC50 [3] [µM]	Compound
> 200	170	0.62	N=C(N)c1cn(CC(=O)Nc2cccnc2)c2c(Br)cccc12 [Compound 8]
> 200	–	1.77	N=C(N)c1cn(CC(=O)Nc2cccnc2)c2c(/C=C/C(N)=O)cccc12 [Compound 47]
–	–	1.39	N=C(N)c1cn(CC(=O)Nc2ccc3ncccc3c2)c2c(Br)cccc12 [Compound 34]
–	–	134	CON(C)C(=O)c1ccc(Br)cc1-n1cc(C(=N)N)c2ccccc21 [Compound 148]
60.2	35.1	1.36	COC(=O)c1ccc(Br)cc1-n1cc(C(=N)N)c2ccccc21 [Compound 131]
–	–	3.23	COC(=O)c1ccc(NC(=O)Cn2cc(C(=N)N)c3cccc(/C=C/C(=O)NC4Cc5ccccc5C4)c32)cc1 [Compound 58]
–	–	127	N=C(N)c1cn(CC(=O)Nc2cccnc2)c2cc(CCC(N)=O)ccc12 [Compound 40]
–	–	2.51	N=C(N)c1cn(CC(=O)Nc2cc(F)cc(F)c2)c2c(Br)cccc12 [Compound 12]
–	–	81.7	N=C(N)c1cn(-c2cc(Br)ccc2C(=O)N2CCNCC2)c2ccccc12 [Compound 144]
–	–	3.81	CCOC(=O)C1CCCN(C(=O)Cn2cc(C(=N)N)c3cccc(C(=O)N4CCCC(C(=O)OCC)C4)c32)C1 (stereo not shown) [Compound 91]
